According to ChEMBL document CHEMBL1201862, “PubChem BioAssay data set” (2004):
Calls of active or inactive are those of the source.

Columns and labels:
[1] = target: Mu-type opioid receptor (Homo sapiens, UniProt P35372); assay type: functional, cell-based;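 note: U2OS cells with beta-arrestin recruitment to OPRM1 by beta-gal complementation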
[2] = target: 5-hydroxytryptamine receptor 2A (Mus musculus, UniProt P35363); assay type: functional, cell-based;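 note: CHO-K1 cells with tagged receptor and beta-arrestin; agonist potency measured as compound-induced activation of the receptor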
Sequence of 5-hydroxytryptamine receptor 2A (P35363 whole entry): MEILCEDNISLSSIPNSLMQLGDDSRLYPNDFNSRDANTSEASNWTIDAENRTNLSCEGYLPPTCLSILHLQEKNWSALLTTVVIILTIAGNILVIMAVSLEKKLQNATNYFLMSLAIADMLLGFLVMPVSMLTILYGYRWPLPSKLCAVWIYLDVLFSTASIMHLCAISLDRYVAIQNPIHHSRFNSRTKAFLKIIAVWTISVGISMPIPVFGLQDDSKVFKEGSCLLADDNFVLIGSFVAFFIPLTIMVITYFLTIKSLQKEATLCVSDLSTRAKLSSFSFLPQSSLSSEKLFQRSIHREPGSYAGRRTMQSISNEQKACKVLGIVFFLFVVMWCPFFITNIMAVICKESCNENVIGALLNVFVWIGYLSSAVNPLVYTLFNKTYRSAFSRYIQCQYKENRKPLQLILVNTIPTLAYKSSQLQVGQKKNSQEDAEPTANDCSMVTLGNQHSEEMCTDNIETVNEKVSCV

[3] = inhibition of ADAM10 peptide cleavage – biochemical, FRET peptide substrate, recombinant human ADAM10, selectivity assay for ADAM17 exosite inhibitor project, dose response (AID 743259);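 note: ADAM10 enzyme cleaving a FRET peptide substrate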
[4] = target: Disintegrin and metalloproteinase domain-containing protein 17 (Homo sapiens, UniProt P78536); assay: exosite inhibitors of ADAM17, dose response, biochemical (AID 743260)
[5] = Luminescence Cell-Based Dose Retest to Confirm Inhibitors of Cancer Stem Cells. [Related pubchem assays (depositor defined):AID2717, AID2721]; assay type: functional; conditions: Homo sapiens
[6] = target: Nuclear receptor subfamily 5 group A member 2 (Homo sapiens, UniProt O00482); assay type: functional, cell-based;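 note: HEK293T cells transfected with LRH-1 and a StAR promoter luciferase reporter; potency for inhibitors that lower LRH-1 driven reporter light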
Sequence of Nuclear receptor subfamily 5 group A member 2 (O00482 whole entry): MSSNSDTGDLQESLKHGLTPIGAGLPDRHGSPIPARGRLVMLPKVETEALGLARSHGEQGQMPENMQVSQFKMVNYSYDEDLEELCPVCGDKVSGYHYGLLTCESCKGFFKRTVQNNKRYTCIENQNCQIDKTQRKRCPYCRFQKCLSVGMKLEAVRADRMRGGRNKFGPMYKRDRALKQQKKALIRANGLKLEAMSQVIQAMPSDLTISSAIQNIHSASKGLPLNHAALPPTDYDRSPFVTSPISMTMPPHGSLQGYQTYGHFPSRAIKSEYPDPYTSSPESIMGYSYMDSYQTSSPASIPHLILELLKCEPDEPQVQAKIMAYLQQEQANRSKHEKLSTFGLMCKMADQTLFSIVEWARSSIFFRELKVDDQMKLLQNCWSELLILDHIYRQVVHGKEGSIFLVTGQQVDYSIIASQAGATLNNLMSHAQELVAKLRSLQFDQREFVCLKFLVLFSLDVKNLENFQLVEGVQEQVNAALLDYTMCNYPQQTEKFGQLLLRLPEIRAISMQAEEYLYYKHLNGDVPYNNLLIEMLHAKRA

[7] = nonselective StAR promoter luciferase inhibitors – cell-based, luminescence, luciferase reporter, counter-screen for LRH-1 inverse agonist project, dose response (AID 651969); assay type: functional
[8] = target: Steroidogenic factor 1 (Homo sapiens, UniProt Q13285); assay: Counterscreen for inverse agonists of the liver receptor homolog-1 (LRH-1; NR5A2): Luminescence-based cell-based high throughput dose response assay to identify inverse agonists of the Steroidogenic Factor 1 Nuclear Receptor (SF1; NR5A1).; assay type: functional
Sequence of Steroidogenic factor 1 (Q13285 whole entry): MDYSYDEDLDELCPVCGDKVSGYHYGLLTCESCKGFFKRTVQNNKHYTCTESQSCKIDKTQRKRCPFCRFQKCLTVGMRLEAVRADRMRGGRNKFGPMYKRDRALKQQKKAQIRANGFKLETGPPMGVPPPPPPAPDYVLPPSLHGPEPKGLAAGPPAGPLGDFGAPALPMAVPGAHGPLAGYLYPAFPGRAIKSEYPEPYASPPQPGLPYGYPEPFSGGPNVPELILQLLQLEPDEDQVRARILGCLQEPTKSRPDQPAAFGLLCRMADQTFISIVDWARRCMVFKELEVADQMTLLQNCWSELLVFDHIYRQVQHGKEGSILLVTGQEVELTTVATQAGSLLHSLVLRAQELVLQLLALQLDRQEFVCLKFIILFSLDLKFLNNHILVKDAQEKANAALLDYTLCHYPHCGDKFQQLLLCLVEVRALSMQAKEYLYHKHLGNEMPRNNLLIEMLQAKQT

[9] = system: Streptococcus; assay: GAS UMAA2166 growth inhibition – luminescence, BacTiterGlo, counter-screen for streptokinase expression inhibitor project, dose response (AID 1915); assay type: functional, organism-based;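 note: potency for reduction of bacterial viability or growth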
[10] = target: Matrix metalloproteinase-14 (Homo sapiens, UniProt P50281); assay: Dose Response confirmation of uHTS hits for a small molecule inhibitors of MT1-MMP activation in a fluorescence assay set 1.; assay type: functional
[11] = target: T1, Streptokinase A (Streptococcus pyogenes serotype M1, UniProt P10520); assay: viability-normalized secreted streptokinase activity reduction – plasminogen activation absorbance, OD405, dose response (AID 1914); assay type: functional, Streptococcus pyogenes M1 GAS;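 note: secreted streptokinase activity via plasminogen activation per viability signal from cell pellet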
T1 sequence (P10520 whole entry): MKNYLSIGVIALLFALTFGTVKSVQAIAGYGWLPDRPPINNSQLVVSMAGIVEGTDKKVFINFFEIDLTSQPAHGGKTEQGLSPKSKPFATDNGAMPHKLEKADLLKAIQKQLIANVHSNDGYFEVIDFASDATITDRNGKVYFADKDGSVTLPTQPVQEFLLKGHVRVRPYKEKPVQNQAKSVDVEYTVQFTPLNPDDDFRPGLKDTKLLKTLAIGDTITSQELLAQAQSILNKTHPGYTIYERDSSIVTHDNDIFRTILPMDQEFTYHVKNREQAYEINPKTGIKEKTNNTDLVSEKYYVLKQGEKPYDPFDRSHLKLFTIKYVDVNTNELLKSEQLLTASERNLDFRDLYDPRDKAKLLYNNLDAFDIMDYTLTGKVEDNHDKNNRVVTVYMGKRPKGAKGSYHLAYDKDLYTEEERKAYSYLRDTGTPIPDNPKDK

[12] = target: Nonstructural protein 1 (Influenza A virus, UniProt Q194T2); assay type: functional, Influenza A virus (A/California/07/2009(H1N1))
[13] = system: Streptococcus sp. 'group A'; assay: Streptococcus pyogenes SK(-)GAS viability under kanamycin – luminescence, BacTiterGlo, confirmation, counter-screen for streptokinase expression inhibitor project, dose response (AID 1900); assay type: functional, organism-based
[14] = target: T2, Low molecular weight phosphotyrosine protein phosphatase (Homo sapiens, UniProt P24666); assay type: functional; conditions: read-out: IC50_Mean
T2 sequence (P24666 whole entry): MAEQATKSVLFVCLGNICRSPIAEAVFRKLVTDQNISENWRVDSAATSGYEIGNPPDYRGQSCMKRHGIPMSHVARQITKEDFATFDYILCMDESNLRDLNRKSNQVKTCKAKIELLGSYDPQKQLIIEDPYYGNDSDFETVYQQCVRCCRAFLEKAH

[15] = target: T2, Low molecular weight phosphotyrosine protein phosphatase; assay type: functional; conditions: read-out: IC50_Mean; remark: listed apart in the source
[16] = Vero E6 cell cytotoxicity, dose response, cytotoxicity control for non-replicating M. tuberculosis project, secondary assay (AID 492998); assay type: functional, VeroE6; conditions: Vero C1008
[17] = THP-1 cell cytotoxicity, dose response, cytotoxicity control for non-replicating M. tuberculosis project (AID 489025); assay type: functional
[18] = cells; assay type: functional
[19] = HepG2 cell cytotoxicity, dose response, cytotoxicity control for non-replicating M. tuberculosis project (AID 489018); assay type: functional; conditions: Mycobacterium tuberculosis
[20] = target: fMet-Leu-Phe receptor (Homo sapiens, UniProt P21462); assay: formyl peptide receptor binders – dose response (AID 519); assay type: functional
Sequence of fMet-Leu-Phe receptor (P21462 whole entry): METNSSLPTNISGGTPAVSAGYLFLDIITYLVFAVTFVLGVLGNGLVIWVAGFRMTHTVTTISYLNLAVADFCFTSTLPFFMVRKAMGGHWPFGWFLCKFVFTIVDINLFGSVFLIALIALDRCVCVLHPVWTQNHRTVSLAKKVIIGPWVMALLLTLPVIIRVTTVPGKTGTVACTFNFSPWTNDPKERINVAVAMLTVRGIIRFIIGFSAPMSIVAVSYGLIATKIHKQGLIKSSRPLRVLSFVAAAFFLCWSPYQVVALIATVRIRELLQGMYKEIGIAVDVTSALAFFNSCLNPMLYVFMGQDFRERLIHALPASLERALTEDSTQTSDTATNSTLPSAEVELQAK

[21] = cells; assay type: functional, cell-based
[22] = target: T3, Nuclear receptor subfamily 0 group B member 1 (Homo sapiens, UniProt P51843); assay type: functional, cell-based
T3 sequence (P51843 whole entry): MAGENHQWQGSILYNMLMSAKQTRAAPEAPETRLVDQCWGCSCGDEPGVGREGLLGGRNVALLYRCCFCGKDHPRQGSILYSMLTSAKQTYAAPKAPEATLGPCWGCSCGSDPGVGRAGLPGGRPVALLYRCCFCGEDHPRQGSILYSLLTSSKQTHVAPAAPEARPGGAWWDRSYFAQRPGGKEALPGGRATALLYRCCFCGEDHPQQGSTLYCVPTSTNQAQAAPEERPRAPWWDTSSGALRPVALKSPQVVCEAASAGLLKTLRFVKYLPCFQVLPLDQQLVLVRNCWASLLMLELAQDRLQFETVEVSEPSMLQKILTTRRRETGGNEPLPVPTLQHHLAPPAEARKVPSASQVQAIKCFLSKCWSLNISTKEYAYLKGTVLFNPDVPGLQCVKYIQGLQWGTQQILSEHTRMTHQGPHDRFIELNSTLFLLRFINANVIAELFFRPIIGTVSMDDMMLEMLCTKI

[23] = viability of uninfected HEp-2 cells – cell-based, HTS, cytotoxicity control for RSV inhibitor project, dose response (AID 2410); assay type: functional; conditions: human respiratory syncytial virus
[24] = target: T4, Fatty acid synthase (Homo sapiens, UniProt P49327); assay: inhibition of human FAS-TE enzyme activity – biochemical, endpoint fluorescence intensity, uHTS hits, dose response (AID 624327); assay type: functional;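 note: fluorescence from hydrolysis of an O-methyl fluorescein acyl ester substrate by the enzyme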
T4 sequence (P49327 whole entry): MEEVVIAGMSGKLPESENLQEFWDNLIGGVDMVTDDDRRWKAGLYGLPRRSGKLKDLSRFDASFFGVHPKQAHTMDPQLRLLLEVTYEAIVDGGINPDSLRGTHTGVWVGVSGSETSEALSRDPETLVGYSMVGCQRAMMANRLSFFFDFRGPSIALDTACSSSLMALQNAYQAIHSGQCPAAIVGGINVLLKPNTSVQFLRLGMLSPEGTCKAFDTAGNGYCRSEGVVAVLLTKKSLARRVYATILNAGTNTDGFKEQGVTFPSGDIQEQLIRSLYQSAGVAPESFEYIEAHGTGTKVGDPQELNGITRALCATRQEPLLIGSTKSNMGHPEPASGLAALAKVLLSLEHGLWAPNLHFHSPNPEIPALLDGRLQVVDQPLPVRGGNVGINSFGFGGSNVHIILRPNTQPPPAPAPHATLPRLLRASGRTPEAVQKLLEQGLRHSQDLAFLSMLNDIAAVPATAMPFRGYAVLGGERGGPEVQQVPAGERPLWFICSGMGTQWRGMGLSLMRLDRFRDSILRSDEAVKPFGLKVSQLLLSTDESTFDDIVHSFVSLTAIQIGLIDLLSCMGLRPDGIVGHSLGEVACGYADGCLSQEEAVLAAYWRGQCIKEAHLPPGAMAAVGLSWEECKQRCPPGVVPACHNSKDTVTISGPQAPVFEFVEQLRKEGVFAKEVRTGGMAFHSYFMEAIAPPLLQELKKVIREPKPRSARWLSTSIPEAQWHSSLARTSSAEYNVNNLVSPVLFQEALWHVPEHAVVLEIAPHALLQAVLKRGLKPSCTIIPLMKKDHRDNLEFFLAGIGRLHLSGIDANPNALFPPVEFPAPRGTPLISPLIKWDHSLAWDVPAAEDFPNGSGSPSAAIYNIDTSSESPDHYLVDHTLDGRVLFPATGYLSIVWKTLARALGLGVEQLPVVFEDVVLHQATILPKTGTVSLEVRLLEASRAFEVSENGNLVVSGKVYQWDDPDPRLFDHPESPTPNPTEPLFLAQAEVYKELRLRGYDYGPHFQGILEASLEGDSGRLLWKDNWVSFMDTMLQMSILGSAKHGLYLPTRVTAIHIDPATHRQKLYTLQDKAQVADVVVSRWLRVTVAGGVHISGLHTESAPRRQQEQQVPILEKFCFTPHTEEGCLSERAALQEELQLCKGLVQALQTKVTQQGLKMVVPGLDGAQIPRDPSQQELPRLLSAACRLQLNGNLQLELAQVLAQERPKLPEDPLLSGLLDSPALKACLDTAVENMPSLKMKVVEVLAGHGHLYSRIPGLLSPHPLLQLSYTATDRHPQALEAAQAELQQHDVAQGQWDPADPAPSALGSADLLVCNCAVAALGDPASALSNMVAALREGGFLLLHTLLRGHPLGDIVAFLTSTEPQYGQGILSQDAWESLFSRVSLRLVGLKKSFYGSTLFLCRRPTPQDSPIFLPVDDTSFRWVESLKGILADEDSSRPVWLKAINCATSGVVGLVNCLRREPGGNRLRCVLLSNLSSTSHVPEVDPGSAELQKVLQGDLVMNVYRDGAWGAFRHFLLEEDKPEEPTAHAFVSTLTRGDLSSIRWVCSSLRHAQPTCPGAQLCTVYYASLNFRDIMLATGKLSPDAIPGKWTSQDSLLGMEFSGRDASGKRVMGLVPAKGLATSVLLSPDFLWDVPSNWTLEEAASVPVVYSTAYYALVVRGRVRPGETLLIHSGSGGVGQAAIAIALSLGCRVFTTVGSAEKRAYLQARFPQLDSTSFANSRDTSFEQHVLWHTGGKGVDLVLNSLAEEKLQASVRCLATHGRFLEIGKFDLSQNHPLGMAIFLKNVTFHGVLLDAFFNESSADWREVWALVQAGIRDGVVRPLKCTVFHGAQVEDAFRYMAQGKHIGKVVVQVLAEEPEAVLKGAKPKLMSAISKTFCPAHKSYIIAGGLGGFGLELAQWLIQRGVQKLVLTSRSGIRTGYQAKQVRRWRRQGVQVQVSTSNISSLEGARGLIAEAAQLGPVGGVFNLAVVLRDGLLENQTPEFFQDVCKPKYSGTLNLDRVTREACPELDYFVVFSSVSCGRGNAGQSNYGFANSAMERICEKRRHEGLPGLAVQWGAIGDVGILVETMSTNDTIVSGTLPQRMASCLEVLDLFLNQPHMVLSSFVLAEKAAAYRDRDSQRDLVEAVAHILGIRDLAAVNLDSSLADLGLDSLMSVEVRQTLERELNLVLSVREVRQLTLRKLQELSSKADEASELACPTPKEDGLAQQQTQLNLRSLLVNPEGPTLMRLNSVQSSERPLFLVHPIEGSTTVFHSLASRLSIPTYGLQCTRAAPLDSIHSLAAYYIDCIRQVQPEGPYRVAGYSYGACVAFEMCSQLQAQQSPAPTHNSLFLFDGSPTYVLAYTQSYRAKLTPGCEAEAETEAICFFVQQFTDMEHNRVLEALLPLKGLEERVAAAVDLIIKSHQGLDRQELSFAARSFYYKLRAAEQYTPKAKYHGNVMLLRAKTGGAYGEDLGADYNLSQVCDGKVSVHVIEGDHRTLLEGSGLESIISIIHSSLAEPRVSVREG

[25] = target: T4, Fatty acid synthase; assay: inhibition of human FAS-TE enzyme activity – biochemical, kinetic fluorescence intensity, dose response (AID 624326); assay type: functional;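 note: rate of fluorescence rise from hydrolysis of a fluorogenic O-methyl fluorescein ester substrate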
[26] = target: T3, Nuclear receptor subfamily 0 group B member 1; assay: Luminescence-based cell-based high throughput dose response assay for inhibitors of the orphan nuclear receptor subfamily 0, group B, member 1 (DAX1; NR0B1). [Related pubchem assays (depositor defined):AID504766, AID504790]; assay type: functional
[27] = viability loss in HepG2 hepatoma cells – cell-based, ATP luminescence, cherry-pick, activator set 2, cytotoxicity control, dose response (AID 1053143); assay type: functional
[28] = system: HEK293; assay: cells; assay type: functional, cell-based; conditions: Homo sapiens
[29] = system: H9c2; assay: cells; assay type: functional, cell-based; conditions: Rattus norvegicus, H9c2, Myocardium;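 note: confirmatory concentration-response retest of ultra-high-throughput screening hits for modulation of myocardial damage; cell death induced by hydrogen peroxide oxidative stress; compound pretreatment for 60 min then peroxide exposure for 2 h; potency is for protecting the cells against peroxide damage rather than for killing them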
[30] = target: ATP-dependent translocase ABCB1 (Homo sapiens, UniProt P08183); assay: inhibition of BCRP-mediated JC-1 efflux – Ig-MXP3 cells, flow cytometry, set 2, dose response (AID 504566); assay type: functional; conditions: read-out: EC50_MICROM_;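 note: flow cytometry median green fluorescence of retained JC-1 dye; potency of efflux pump inhibition measured as rising substrate retention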

Sequence of Mu-type opioid receptor (P35372 whole entry): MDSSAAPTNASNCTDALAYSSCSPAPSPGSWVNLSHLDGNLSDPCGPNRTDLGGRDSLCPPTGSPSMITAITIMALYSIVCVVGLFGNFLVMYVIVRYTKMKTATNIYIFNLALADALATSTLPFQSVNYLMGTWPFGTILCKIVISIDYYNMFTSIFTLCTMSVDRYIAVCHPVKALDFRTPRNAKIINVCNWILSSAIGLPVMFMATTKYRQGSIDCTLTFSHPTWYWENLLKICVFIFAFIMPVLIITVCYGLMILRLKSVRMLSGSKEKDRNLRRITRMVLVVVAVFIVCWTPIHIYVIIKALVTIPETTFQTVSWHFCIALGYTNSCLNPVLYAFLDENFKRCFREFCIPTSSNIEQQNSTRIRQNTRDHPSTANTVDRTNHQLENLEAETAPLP

CCOc1cc(CN2CCN(C(=O)c3ccco3)CC2)ccc1OC
EC50 [1]: 92.5 µM (inactive) | EC50 [2]: 5.88 µM (active)

Nc1cc(Cl)ccc1Oc1ccc2ccccc2c1
IC50 [3]: 29.6 µM (inactive) | IC50 [4]: > 69.5 µM (inactive) | AC50 [5]: 5.81 µM (active)

COc1cccc(-c2cnc3c(NC(C)=O)cc(-c4ccc(S(C)(=O)=O)cc4)cn23)c1
IC50 [6]: 9.25 µM (active) | IC50 [7]: 23.5 µM (inactive) | IC50 [8]: 4.62 µM (active)

Nc1nc(-c2ccccc2)c(N=Nc2cccc3ccccc23)s1
EC50 [9]: > 150 µM (not active) | IC50 [10]: 31.3 µM (inactive) | EC50 [11]: > 150 µM (not active) | IC50 [12]: 9.98 µM (active) | EC50 [13]: 4.14 µM (active)

CN(C)c1cc(-c2ccc(Cl)c(Cl)c2)oc(=O)c1Cl
IC50 [14]: 8.63 µM (active) | IC50 [15]: 35.4 µM (inactive)

Cc1nn2c(=O)c3c([nH]c2c1-c1ccc(Cl)cc1)CCC3
CC50 [16]: 14.1 µM (active) | CC50 [17]: 11.2 µM (active) | IC50 [18]: 10.3 µM (active) | CC50 [19]: 14.9 µM (active) | Ki [20]: 14.1 µM (active)

O=S(=O)(Nc1cccc(-c2ccc(N3CCCCCC3)nn2)c1)c1ccccc1F
IC50 [21]: > 67.6 µM (inactive) | IC50 [22]: > 67.6 µM (inactive) | CC50 [23]: > 50 µM (active) | IC50 [24]: 7.03 µM (active) | IC50 [25]: 6.9 µM (active)

Cc1ccc(NC(=O)c2ccc(Cl)cc2Cl)cc1O
IC50 [26]: > 67.6 µM (inactive) | AC50 [27]: 26 µM (active) | IC50 [28]: > 67.6 µM (inactive)

COc1ccc(-c2cc3nc(C)cc(N4CCN(C(=O)c5ccoc5)CC4)n3n2)cc1
IC50 [29]: 27.3 µM (active) | EC50 [30]: 6.12 µM (active)
